According to ChEMBL document CHEMBL4483862, “Open-source discovery of chemical leads for next-generation chemoprotective antimalarials” (2018):

Tested on: Plasmodium berghei
Assay: Luciferase/luciferin-expressing antifolate-resistant parasites were used to infect a culture of HepG2 cells that were pre-incubated with compounds. Infected hepatocytes emit light due to the luciferase reaction. Assay results are presented as the percent inhibition of light emission compared to control. […]
Type: functional
Settings: sporozoite; for IC90: read-out: LUCIFERASE INFECTION ASSAY - IC90
[1] = read-out: LUCIFERASE INFECTION ASSAY - IC50

Row | SMILES | IC90 | IC50 [1] | other results
1 | O=S(=O)(NC1CCN(c2nn3cc(-c4ccccc4)nc3s2)CC1)c1cccs1 | 3.14 µM | – | IC50 (HEPG2TOX_HILL_SLOPE 6.79, HEPG2TOX_R_SQUARED 0.144, PBLUC_HILL_SLOPE 1.24, PBLUC_R_SQUARED 0.735, read-out: LUCIFERASE INFECTION ASSAY - IC50): 0.534 µM
2 | c1csc(-c2cn3c(-c4ccc5ncccc5c4)cnc3cn2)c1 | 8.95 µM | – | IC50 (HEPG2TOX_HILL_SLOPE 2.44, HEPG2TOX_R_SQUARED 0.922, PBLUC_HILL_SLOPE 1.55, PBLUC_R_SQUARED 0.705, read-out: LUCIFERASE INFECTION ASSAY - IC50): 2.17 µM
3 | N#Cc1cc(NC(=O)c2ccc(Cl)cc2)ccc1Sc1ccccc1 | > 9.04 µM | > 9.04 µM | –
4 | Cc1ccc(-n2nc(C)c(NC(=O)Cn3c(NCc4ccccc4)nc4ccccc43)c2C)cc1 | > 10 µM | > 10 µM | –
5 | CCOc1ccccc1NS(=O)(=O)c1ccc(C(=O)OC)cc1 | > 10 µM | – | IC50 (HEPG2TOX_HILL_SLOPE 3.9, HEPG2TOX_R_SQUARED 0.853, PBLUC_HILL_SLOPE 3.26, PBLUC_R_SQUARED 0.571, read-out: LUCIFERASE INFECTION ASSAY - IC50): 7.52 µM
6 | CSc1sc(C(=O)NC(=O)Nc2cccc(C(F)(F)F)c2)cc1C#N | > 8.56 µM | – | IC50 (FFLUC_HILL_SLOPE 12.6, FFLUC_R_SQUARED 0.0423, read-out: LUCIFERASE INFECTION ASSAY - IC50): > 8.56 µM
7 | COc1cc(C2NCC(c3ccc(Cl)cc3Cl)c3c2[nH]c2ccccc32)ccc1OCC(C)C (stereo unspecified) | 3.76 µM | – | IC50 (PBLUC_HILL_SLOPE 12.5, PBLUC_R_SQUARED 0.54, read-out: LUCIFERASE INFECTION ASSAY - IC50): 3.15 µM
8 | Cc1ccc(C)c(-n2nnnc2SCC(=O)Nc2nc(-c3ccccn3)cs2)c1 | > 10 µM | – | IC50 (PBLUC_HILL_SLOPE 1.88, PBLUC_R_SQUARED 0.631, read-out: LUCIFERASE INFECTION ASSAY - IC50): 5.63 µM
9 | O=C(Cc1cccs1)NCC(c1ccccc1Cl)c1c[nH]c2ccccc12 (stereo unspecified) | 9.35 µM | – | IC50 (FFLUC_HILL_SLOPE 3.31, FFLUC_R_SQUARED 0.784, PBLUC_HILL_SLOPE 3.75, PBLUC_R_SQUARED 0.47, read-out: LUCIFERASE INFECTION ASSAY - IC50): 5.2 µM
10 | CC(C)[C@@H](CO)Nc1nccn2c(-c3cccc(OC(F)(F)F)c3)cnc12 | 6.18 µM | – | IC50 (HEPG2TOX_HILL_SLOPE 1.77, HEPG2TOX_R_SQUARED 0.938, PBLUC_HILL_SLOPE 1.99, PBLUC_R_SQUARED 0.624, read-out: LUCIFERASE INFECTION ASSAY - IC50): 2.05 µM
11 | Cc1onc(-c2ccc(Cl)cc2Cl)c1-c1csc(N/N=C/c2ccccc2Cl)n1 | > 7.12 µM | – | IC50 (FFLUC_HILL_SLOPE 8.51, FFLUC_R_SQUARED 0.488, HEPG2TOX_HILL_SLOPE 2.88, HEPG2TOX_R_SQUARED 0.834, read-out: LUCIFERASE INFECTION ASSAY - IC50): > 7.12 µM
12 | Cc1ccc(-c2nn(-c3ccccc3)cc2/C=N/Nc2ncnc(N)c2[N+](=O)[O-])o1 | 1.28 µM | – | IC50 (FFLUC_HILL_SLOPE 2.88, FFLUC_R_SQUARED 0.103, HEPG2TOX_HILL_SLOPE 0.791, HEPG2TOX_R_SQUARED 0.887, PBLUC_HILL_SLOPE 4.72, PBLUC_R_SQUARED 0.877, read-out: LUCIFERASE INFECTION ASSAY - IC50): 0.806 µM
13 | CCOc1cc(/C=C/C(=O)c2cccs2)cc(Br)c1OC | > 10 µM | – | IC50 (HEPG2TOX_HILL_SLOPE 0.301, HEPG2TOX_R_SQUARED 0.1, PBLUC_HILL_SLOPE 0.921, PBLUC_R_SQUARED 0.199, read-out: LUCIFERASE INFECTION ASSAY - IC50): > 10 µM
14 | c1ccc(-c2nc(-c3ccccc3)c(-c3ccccc3)o2)cc1 | > 11.1 µM | – | IC50 (FFLUC_HILL_SLOPE 6.72, FFLUC_R_SQUARED 0.191, read-out: LUCIFERASE INFECTION ASSAY - IC50): > 11.1 µM
15 | Cc1cccc(C)c1N1C(=O)C=CC1=O | > 16.4 µM | – | IC50 (PBLUC_HILL_SLOPE 2.64, PBLUC_R_SQUARED 0.435, read-out: LUCIFERASE INFECTION ASSAY - IC50): > 16.4 µM
16 | O=C(Nc1ccc(F)cc1F)Nc1cc(Cl)sc1Cl | > 10.2 µM | – | IC50 (PBLUC_HILL_SLOPE 1.97, PBLUC_R_SQUARED 0.405, read-out: LUCIFERASE INFECTION ASSAY - IC50): 6.86 µM
17 | O=c1c2ccccc2nnn1CSc1nc2ccccc2c(=O)n1CCC1=CCCCC1 | 9.59 µM | – | IC50 (HEPG2TOX_HILL_SLOPE 2.76, HEPG2TOX_R_SQUARED 0.854, PBLUC_HILL_SLOPE 2.95, PBLUC_R_SQUARED 0.421, read-out: LUCIFERASE INFECTION ASSAY - IC50): 4.55 µM

Row | SMILES | IC90 | IC50 [1] | other results
18 | O=C(CN1CCN(C(=O)c2ccc(=O)n(Cc3ccccc3)n2)CC1)NC1CC1 | > 10 µM | > 10 µM | –
19 | CC(C)c1ccc(NC(=O)Nc2nc(C(N)CCc3ccccc3)cs2)cc1 (stereo unspecified) | 7.09 µM | – | IC50 (HEPG2TOX_HILL_SLOPE 3.95, HEPG2TOX_R_SQUARED 0.94, PBLUC_HILL_SLOPE 4.47, PBLUC_R_SQUARED 0.626, read-out: LUCIFERASE INFECTION ASSAY - IC50): 4.34 µM
20 | CCOC(=O)c1c(C)oc2c1cc(OS(=O)(=O)c1ccc(NC(C)=O)cc1)c1ccccc12 | 9.89 µM | – | IC50 (HEPG2TOX_HILL_SLOPE 2.44, HEPG2TOX_R_SQUARED 0.99, PBLUC_HILL_SLOPE 3.26, PBLUC_R_SQUARED 0.643, read-out: LUCIFERASE INFECTION ASSAY - IC50): 5.05 µM
21 | Cc1nn(-c2ccccc2)c(N2CCCC2)c1/C=N/Nc1ccc(S(N)(=O)=O)cc1[N+](=O)[O-] | > 10 µM | 9.05 µM | –
22 | Cc1sc2nc(CSc3ccccc3)nc(N3CCN(CC(=O)NC4CC4)CC3)c2c1C | > 10 µM | – | IC50 (PBLUC_HILL_SLOPE 2.61, PBLUC_R_SQUARED 0.67, read-out: LUCIFERASE INFECTION ASSAY - IC50): 5.13 µM
23 | Cc1cc(NC(=S)NNC(=O)c2cccnc2Oc2ccccc2)ccc1Br | > 7.22 µM | > 7.22 µM | –
24 | Cc1cc(C)n(-c2ccc(NC(=O)c3ccc(CN4CCCCC4)cc3)cn2)n1 | > 10 µM | – | IC50 (HEPG2TOX_HILL_SLOPE 1.19, HEPG2TOX_R_SQUARED 0.854, PBLUC_HILL_SLOPE 17.4, PBLUC_R_SQUARED 0.154, read-out: LUCIFERASE INFECTION ASSAY - IC50): 9.79 µM
25 | O=C(Nc1ccccc1Oc1ccccc1Cl)c1cc2ccccc2c(=O)[nH]1 | 1.25 µM | – | IC50 (HEPG2TOX_HILL_SLOPE 0.764, HEPG2TOX_R_SQUARED 0.704, PBLUC_HILL_SLOPE 15.6, PBLUC_R_SQUARED 0.531, read-out: LUCIFERASE INFECTION ASSAY - IC50): 1.09 µM
26 | CC(C)N(C(=O)COn1nnc2ccc(S(=O)(=O)N(C)C)cc21)C(C)C | > 10 µM | > 10 µM | –
27 | CC1CN(S(=O)(=O)NCC(c2ccccc2Cl)c2c[nH]c3ccccc23)CC(C)O1 (stereo unspecified) | > 10 µM | > 10 µM | –
28 | OC12CC3CC(C1)CC(c1cc(-c4ccccc4Cl)c4cc(Cl)ccc4n1)(C3)C2 | > 10 µM | > 10 µM | –
29 | CC(C)(C)c1cc(=O)n(-c2nc3ccc(Cl)cc3s2)[nH]1 | > 10.7 µM | > 10.7 µM | –
30 | CC(C(OC(=O)c1ccc(S(=O)(=O)N(C)C)cc1)c1ccccc1)N(C)S(=O)(=O)c1ccc(Cl)cc1 (stereo unspecified) | > 10 µM | – | IC50 (FFLUC_HILL_SLOPE 14.7, FFLUC_R_SQUARED 0.389, PBLUC_HILL_SLOPE 2.36, PBLUC_R_SQUARED 0.776, read-out: LUCIFERASE INFECTION ASSAY - IC50): 7.17 µM
31 | CCC(C)(C)c1ccc(Oc2ccc(NC(=O)Nc3ccccc3OC)cc2)cc1 | 5.8 µM | – | IC50 (HEPG2TOX_HILL_SLOPE 7.52, 1.98, HEPG2TOX_R_SQUARED 0.307, 0.635, PBLUC_HILL_SLOPE 2.78, 0.762, PBLUC_R_SQUARED 0.525, 0.659, read-out: LUCIFERASE INFECTION ASSAY - IC50): 1.08 µM
32 | Cc1cc(N2CCN(C)CC2)n2ncc(-c3ccc(F)cc3)c2n1 | > 10.1 µM | – | IC50 (PBLUC_HILL_SLOPE 0.664, PBLUC_R_SQUARED 0.928, read-out: LUCIFERASE INFECTION ASSAY - IC50): 0.571 µM
33 | Cc1cccn2cc(CN3CCN(S(=O)(=O)c4ccc(Cl)c(C(F)(F)F)c4)CC3)nc12 | > 10 µM | > 10 µM | –
